Source: ChEMBL document CHEMBL3244210, “Experimental antiulcer drugs. 1. Indole-1-alkanamides and pyrrole-1-alkanamides” (J Med Chem, 1977)
Activity calls are given as the source filed them. No cut-off for these calls is given here.

Assays:
[1] = tested on: Rattus norvegicus; experiment: Antiulcer activity in po dosed albino rat pyloric ligation model assessed as inhibition of gastric secretion administered as single dose 1 to 24 hrs prior to ligation; type: functional, organism-based; details: Stomach
[2] = tested on: Rattus norvegicus; experiment: Antiulcer activity in sc dosed albino rat pyloric ligation model assessed as inhibition of gastric secretion administered as single dose 1 to 24 hrs prior to ligation; type: functional, organism-based; details: Stomach
[3] = tested on: Rattus norvegicus; experiment: Antiulcer activity in albino rat pyloric ligation model assessed as inhibition of total acid output at 200 mg/kg, po administered as single dose 1 hr prior ligation relative to control; type: functional
[4] = tested on: Rattus norvegicus; experiment: Antiulcer activity in albino rat pyloric ligation model assessed as inhibition of gastric volume at 50 mg/kg, po administered as single dose 1 hr prior ligation relative to control; type: functional; details: Stomach
[5] = tested on: Canis familiaris; experiment: Toxicity in beagle dog at 50 mg/kg, po; type: organism-based, Canis lupus familiaris; design: dose 50 mg/kg, route oral; details: in vivo
[6] = tested on: Rattus norvegicus; experiment: Antiulcer activity in albino rat pyloric ligation model assessed as inhibition of total acid output at 25 mg/kg, po administered as single dose 1 hr prior ligation relative to control; type: functional
[7] = tested on: Rattus norvegicus; experiment: Antiulcer activity in albino rat pyloric ligation model assessed as elevation of gastric pH at 100 mg/kg, po administered as single dose 1 hr prior ligation (Rvb =1.1 no_unit); type: functional, Stomach
[8] = tested on: Rattus norvegicus; experiment: Antiulcer activity in albino rat pyloric ligation model assessed as elevation of gastric pH at 50 mg/kg, po administered as single dose 1 hr prior ligation (Rvb =1.1 no_unit); type: functional, Stomach
[9] = tested on: Rattus norvegicus; experiment: Antiulcer activity in albino rat pyloric ligation model assessed as inhibition of gastric volume at 25 mg/kg, po administered as single dose 1 hr prior ligation relative to control; type: functional; details: Stomach
[10] = tested on: Rattus norvegicus; experiment: Antiulcer activity in albino rat pyloric ligation model assessed as inhibition of gastric volume at 100 mg/kg, po administered as single dose 24 hrs prior ligation relative to control; type: functional; details: Stomach
[11] = tested on: Rattus norvegicus; experiment: Antiulcer activity in albino rat pyloric ligation model assessed as elevation of gastric pH at 100 mg/kg, po administered as single dose during prior ligation (Rvb =1.1 no_unit); type: functional, Stomach
[12] = tested on: Rattus norvegicus; experiment: Antiulcer activity in albino rat pyloric ligation model assessed as inhibition of total acid output at 100 mg/kg, po administered as single dose 24 hrs prior ligation relative to control; type: functional
[13] = tested on: Rattus norvegicus; experiment: Antiulcer activity in albino rat pyloric ligation model assessed as inhibition of total acid output at 100 mg/kg, po administered as single dose during ligation relative to control; type: functional
[14] = tested on: Rattus norvegicus; experiment: Antiulcer activity in albino rat pyloric ligation model assessed as inhibition of total acid output at 50 mg/kg, po administered as single dose 1 hr prior ligation relative to control; type: functional
[15] = tested on: Rattus norvegicus; experiment: Antiulcer activity in albino rat pyloric ligation model assessed as inhibition of gastric volume at 200 mg/kg, po administered as single dose 1 hr prior ligation relative to control; type: functional; details: Stomach
[16] = tested on: Rattus norvegicus; experiment: Antiulcer activity in albino rat pyloric ligation model assessed as elevation of gastric pH at 100 mg/kg, po administered as single dose 24 hrs prior ligation (Rvb =1.1 no_unit); type: functional, Stomach
[17] = tested on: Mus musculus; experiment: Anticholinergic activity in mouse assessed as mydriasis at 100 mg/kg, po measured after 1 to 24 hrs post dose; type: ADME, organism-based; design: dose 100 mg/kg, route oral; details: in vivo
[18] = Toxicity in histamine-induced guinea pig assessed as change in rate of beating in right atrium at 10 ' -5 to 5 x 10' -5 M after 5 mins; type: tissue-based, Cavia porcellus, Cardiac atrium
[19] = tested on: Rattus norvegicus; experiment: Antiulcer activity in albino rat pyloric ligation model assessed as elevation of gastric pH at 25 mg/kg, po administered as single dose 1 hr prior ligation (Rvb =1.1 no_unit); type: functional, Stomach
[20] = tested on: Rattus norvegicus; experiment: Antiulcer activity in albino rat pyloric ligation model assessed as inhibition of total acid output at 100 mg/kg, po administered as single dose 1 hr prior ligation relative to control; type: functional
[21] = tested on: Rattus norvegicus; experiment: Antiulcer activity in albino rat pyloric ligation model assessed as inhibition of gastric volume at 100 mg/kg, po administered as single dose during ligation relative to control; type: functional; details: Stomach
[22] = tested on: Rattus norvegicus; experiment: Antiulcer activity in albino rat pyloric ligation model assessed as elevation of gastric pH at 200 mg/kg, po administered as single dose 1 hr prior ligation (Rvb =1.1 no_unit); type: functional, Stomach
[23] = tested on: Rattus norvegicus; experiment: Antiulcer activity in albino rat pyloric ligation model assessed as inhibition of gastric volume at 100 mg/kg, po administered as single dose 1 hr prior ligation relative to control; type: functional; details: Stomach
[24] = tested on: Canis familiaris; experiment: Antisecretory activity in beagle dog with chronic gastric fistula assessed as inhibition of histamine-induced gastric secretion at 50 mg/kg, po measured every 15 mins post histamine treatment; type: functional, organism-based; design: dose 50 mg/kg; details: Canis lupus familiaris, Stomach
[25] = organism: Rattus norvegicus; experiment: animal or person; details: po, read-out: INH
[26] = organism: Rattus norvegicus; experiment: animal or person; details: Stomach, po, read-out: INH
[27] = tested on: Rattus norvegicus; experiment: Antiulcer activity in albino rat pyloric ligation model assessed as elevation of gastric pH at 6.25 mg/kg, po administered as single dose during prior ligation (Rvb =1.1 no_unit); type: functional, Stomach
[28] = Drug excretion in rat urine administered as single dose 1 to 24 hrs prior to ligation; type: ADME; details: in vivo
[29] = organism: Homo sapiens; experiment: Antagonist activity at histamine receptor (unknown origin) assessed as shift in histamine-induced response at 10 '-5 M relative to control
[30] = organism: Homo sapiens; experiment: Antagonist activity at histamine receptor (unknown origin) assessed as shift in histamine-induced response at 5 x 10 '-5 M relative to control

Question: With `Cc1c(C)n(CCCC(N)=O)c2ccccc12` as the molecule, how does the inhibition [1] read?
Answer: Active

Question: And the inhibition [2]?
Answer: Active

Question: With `c1ccc2[nH]ccc2c1` as the molecule, how does the inhibition [1] read?
Answer: Active

Question: And the inhibition [2]?
Answer: Active

Question: Which results are given for `Cc1c(CO)c2ccccc2n1CC(N)=O`?
Answer: inhibition [1]: inactive; inhibition [2]: Active

Question: With `Cc1cc2ccccc2n1CCC(N)=O` as the molecule, how does the inhibition [1] read?
Answer: inactive

Question: And the inhibition [2]?
Answer: inactive

Question: What does the source list for `Cc1c(C)n(CC(N)=O)c2ccccc12`?
Answer: inhibition in vivo at 200 mg/kg [3]: 88%; inhibition in vivo at 50 mg/kg [4]: 39%; Activity [5]: Toxic; inhibition in vivo at 25 mg/kg [6]: 47%; pH [7]: 6; pH [8]: 3; inhibition in vivo at 25 mg/kg [9]: 26%; inhibition in vivo at 100 mg/kg [10]: 44%; pH [11]: 1.5; inhibition in vivo at 100 mg/kg [12]: 69%; inhibition in vivo at 100 mg/kg [13]: 52%; inhibition [1]: Active; inhibition [2]: Active; inhibition in vivo at 50 mg/kg [14]: 69%; inhibition in vivo at 200 mg/kg [15]: 56%; pH [16]: 3.2; Activity [17]: Non-toxic; Activity [18]: Non-toxic; pH [19]: 2.6; inhibition in vivo at 100 mg/kg [20]: 85%; inhibition in vivo at 100 mg/kg [21]: 32%; pH [22]: 6.7; inhibition in vivo at 100 mg/kg [23]: 27%; Activity [24]: Active

Question: With `CCc1c(C)n(CCC(N)=O)c2ccccc12` as the molecule, how does the inhibition [1] read?
Answer: inactive

Question: What about the inhibition [2] of the same molecule?
Answer: inactive

Question: Which inhibition [1] does the source give for `Cc1c(CO)c2ccccc2n1CCC(N)=O` here?
Answer: inactive

Question: And the inhibition [2]?
Answer: Active

Question: For `NC(=O)Cn1ccc2ccccc21`, which inhibition [1] is on record?
Answer: inactive

Question: And the inhibition [2]?
Answer: inactive

Question: Which inhibition [1] does the source give for `Cc1cn(CC(N)=O)c2ccccc12` here?
Answer: inactive

Question: And the inhibition [2]?
Answer: inactive

Question: What does the source list for `CCc1c(C)c2ccccc2n1CCC(N)=O`?
Answer: inhibition [1]: inactive; inhibition [2]: inactive

Question: Which results are given for `CCc1c(C)n(CC(N)=O)c2ccccc12`?
Answer: inhibition [1]: inactive; inhibition [2]: inactive

Question: Which results are given for `Cc1c(C)c(C)n(CC(N)=O)c1C`?
Answer: inhibition [1]: inactive; inhibition [2]: inactive; Activity [17]: Non-toxic; Activity [18]: Non-toxic

Question: Which inhibition in vivo at 6.25 mg/kg [25] does the source give for `CN1[C@@H]2CC[C@H]1CC(OC(=O)[C@H](CO)c1ccccc1)C2` (stereo partly drawn) [ENDO-ATROPINE] here?
Answer: 58%

Question: And the inhibition in vivo at 6.25 mg/kg [26]?
Answer: 43%

Question: And the pH [27]?
Answer: 1.5

Question: Which inhibition [1] does the source give for `Cc1[nH]c2ccccc2c1C` here?
Answer: Active

Question: What about the inhibition [2] of the same molecule?
Answer: Active

Question: And the Activity [17]?
Answer: Non-toxic

Question: What about the Drug excretion [28] of the same molecule?
Answer: metabolite_detected

Question: What about the Activity [18] of the same molecule?
Answer: Non-toxic

Question: For `CNC(=S)NCCSCc1[nH]cnc1C`, which fold change (FC) [29] is on record?
Answer: 11

Question: What about the fold change (FC) [30] of the same molecule?
Answer: 38

Question: For `Cc1ccc(C)n1CCC(N)=O`, which inhibition [1] is on record?
Answer: inactive

Question: And the inhibition [2]?
Answer: inactive

Question: With `Cc1c(C)n(CCC(N)=O)c2ccccc12` as the molecule, how does the inhibition [1] read?
Answer: Active

Question: What about the inhibition [2] of the same molecule?
Answer: Active

Question: What does the source list for `Cc1c[nH]c2ccccc12`?
Answer: inhibition [1]: Active; inhibition [2]: Active

Question: With `Cc1c(CO)c2ccccc2n1CCCC(N)=O` as the molecule, how does the inhibition [1] read?
Answer: inactive

Question: And the inhibition [2]?
Answer: inactive

Question: Which inhibition [1] does the source give for `Cc1cc2ccccc2n1CC(N)=O` here?
Answer: inactive

Question: What about the inhibition [2] of the same molecule?
Answer: inactive

Question: Which inhibition [1] does the source give for `Cc1cc2ccccc2n1C` here?
Answer: inactive

Question: What about the inhibition [2] of the same molecule?
Answer: inactive

Question: Which inhibition [1] does the source give for `Cc1cn(CCC(N)=O)c2ccccc12` here?
Answer: inactive

Question: What about the inhibition [2] of the same molecule?
Answer: inactive

Question: For `Cc1ccc(C)n1CC(N)=O`, which inhibition [1] is on record?
Answer: inactive

Question: And the inhibition [2]?
Answer: inactive

Question: What does the source list for `CCc1c(C)c2ccccc2n1CC(N)=O`?
Answer: inhibition [1]: inactive; inhibition [2]: inactive

Question: For `Cc1cc2ccccc2[nH]1`, which inhibition [1] is on record?
Answer: Active

Question: And the inhibition [2]?
Answer: Active

Question: Which results are given for `Cc1c(CO)n(CCC(N)=O)c2ccccc12`?
Answer: inhibition [1]: inactive; inhibition [2]: inactive

Question: What does the source list for `Cc1c(C)c(C)n(CCC(N)=O)c1C`?
Answer: inhibition [1]: inactive; inhibition [2]: inactive

Question: What does the source list for `CN/C(=N\CCSCc1nc[nH]c1C)NC#N` [CIMETIDINE]?
Answer: pH [7]: 2.1; inhibition in vivo at 100 mg/kg [20]: 37%; inhibition in vivo at 100 mg/kg [23]: 14%
